Values after ≈ are worked out from the molar mass of the structure shown. Where a SMILES comes first, the peptide text is derived from it.
How the values were obtained:
[1] = system: human immunodeficiency virus (HIV); details: for EC 50 (concentration at which cellular affection due to HIV infection is 50% inhibited): HIV-infected MT-4 cells, MOI 0.001, 5 days, MTT method; for Anti-HIV activity SI / Anti-HIV activity EC50: Table 3; for Anti-HIV activity SI: CC50/EC50; for Anti-HIV activity EC50: tested likewise in Example 2, HIV-infected MT-4 cells
Procedure: HIV-infected MT-4 cells (2.5×10^4 cells/well, multiplicity of infection (MOI): 0.001) immediately after the infection are added together with a test substance with various changes of the concentration to a 96-well microtiter plate. After incubation at […] for 5 days in a CO2 incubator, the number of survivor cells is measured by the MTT method [Pauwels et al.; J. Virol. Methods, 20, 309-321 (1988)]. […] On the other hand, in order to know the cytotoxicity of the test substance on the MT-4 cells, virus-non-infected cells are incubated, likewise as above, together with the test compound with various changes of the concentration. […] Further, the rough ratio of CC 50 to EC 50 (CC 50/EC 50) is expressed as an effective ratio (SI).

MT-4 cells = assay: Cytotoxicity on virus-non-infected MT-4 cells (MTT method); assay type: cell-based; details: for CC 50 (50% cytotoxic concentration): Table 2, virus-non-infected MT-4 cells, 5 days, MTT method
Procedure: HIV-infected MT-4 cells (2.5×10^4 cells/well, multiplicity of infection (MOI): 0.001) immediately after the infection are added together with a test substance with various changes of the concentration to a 96-well microtiter plate. After incubation at 7° C. for 5 days in a CO2 incubator, the number of survivor cells is measured by the MTT method [Pauwels et al.; J. Virol. […] On the other hand, in order to know the cytotoxicity of the test substance on the MT-4 cells, virus-non-infected cells are incubated, likewise as above, together with the test compound with various changes of the concentration.

Compound	EC 50 (concentration at which cellular affection due to HIV infection is 50% inhibited) ([1]; Table 2) [µg/mL]	SI (effective ratio, CC 50/EC 50) ([1]; Table 2, rough ratio of CC 50 to EC 50)	Anti-HIV activity SI [1]	Anti-HIV activity EC50 [1] [µg/mL]	Concentration for antiviral activity relative to Tachyplesin I ([1]; compared with Tachyplesin I, Table 2 data)	Cytotoxicity compared with Tachyplesin I (MT-4 cells; MT-4 cells, Table 2 data)	CC 50 (50% cytotoxic concentration) (MT-4 cells) [µg/mL]	CC 50 relative to azidothymidine (times higher) (MT-4 cells; compared with azidothymidine, Table 2 data) [times]
CC[C@H](C)[C@@H]1NC(=O)CNC(=O)[C@H](CCCNC(=N)N)NC(=O)[C@H](Cc2ccc(O)cc2)NC(=O)[C@@H]2CSSC[C@H](NC1=O)C(=O)N[C@@H](Cc1ccc(O)cc1)C(=O)N[C@@H](CCCNC(=N)N)C(=O)N[C@@H](CCCCN)C(=O)N[C@H](C(=O)N[C@@H](CCCNC(=N)N)C(N)=O)CSSC[C@H](NC(=O)[C@H](Cc1c[nH]c3ccccc13)NC(=O)[C@@H](N)CCCNC(=N)N)C(=O)N[C@@H](Cc1ccc(O)cc1)C(=O)N[C@@H](CCCNC(=N)N)C(=O)N[C@@H](CCCCN)C(=O)N2 [Polypeptide (A)] (HELM PEPTIDE1{R.W.C.Y.R.K.C.Y.R.G.I.C.Y.R.K.C.R.[am]}$PEPTIDE1,PEPTIDE1,3:R3-16:R3|PEPTIDE1,PEPTIDE1,7:R3-12:R3$$$V2.0; N-terminus assumed)	0.35 (≈ 0.152 µM)	110	1144	0.039	1/50	somewhat stronger cytotoxicity	39 (≈ 16.9 µM)	60
[H][C@]12CSSC[C@]([H])(NC(=O)[C@]([H])([C@@H](C)CC)NC(=O)CNC(=O)[C@H](CCCNC(=N)N)NC(=O)[C@H](Cc3ccc(O)cc3)NC1=O)C(=O)N[C@@H](Cc1ccc(O)cc1)C(=O)N[C@@H](CCCNC(=N)N)C(=O)N[C@@H](CCCNC(=N)N)C(=O)N[C@H](C(=O)N[C@@H](CCCNC(=N)N)C(N)=O)CSSC[C@H](NC(=O)[C@H](Cc1c[nH]c3ccccc13)NC(=O)[C@@H](N)CCCCN)C(=O)N[C@@H](Cc1ccccc1)C(=O)N[C@@H](CCCNC(=N)N)C(=O)N[C@@H](C(C)C)C(=O)N2 [Tachyplesin I, reference compound] (HELM PEPTIDE1{K.W.C.F.R.V.C.Y.R.G.I.C.Y.R.R.C.R.[am]}$PEPTIDE1,PEPTIDE1,3:R3-16:R3|PEPTIDE1,PEPTIDE1,7:R3-12:R3$$$V2.0; N-terminus and C-terminus assumed; bridges inferred)	18.1 (≈ 8 µM)	–	–	–	–	–	49 (≈ 21.6 µM)	–
(1): polypeptide of the invention, SEQ ID NO: 2, shown only as drawing (WCYRKCYRGICYRKCR)	–	–	30	6.9	–	–	–	–

— patent US5571892A, “Polypeptide and anti-HIV drug prepared therefrom” (priority 1990, dated 1996)
